Values after ≈ are worked out from the molar mass of the structure shown. *1 amine or outer side, *2 acyl side, *3 side chain or, on linkers, in order; H or OH if unused. Where a SMILES comes first, the peptide text is derived from it. Bridges are numbered along the chain shown (N, C = ends). The star is where a group is joined. C20 diacid = O=C(O)CCCCCCCCCCCCCCCCCCC(=O)*; γGlu = O=C(O)[C@H](CCC(=O)[*:2])N[*:1]
What was measured:
Insulin (Homo sapiens) [1] = target: Insulin (Homo sapiens) (UniProt P01308); experiment: Effect on insulin (unknown origin) amyloid fibril formation assessed as peptide recovery in glycyl-glycine buffer at pH 4 measured after 45 hrs by thioflavin-T fluorescence assay relative to control; set-up: concentration or dose not given beside the values
Insulin (Homo sapiens), sequence (P01308 whole entry): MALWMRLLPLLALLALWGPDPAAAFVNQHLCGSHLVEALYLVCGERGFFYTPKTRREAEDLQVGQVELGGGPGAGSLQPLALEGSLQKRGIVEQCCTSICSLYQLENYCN

Homo sapiens = species: Homo sapiens; experiment: Ratio of EC50 for human calcitonin receptor expressed in BHK570 cells to EC50 for human AMY3R (CT+RAMP3) expressed in Hollex1 cells; assay type: cell-based
[2] = Solubility of the compound in bis-tris propane at pH 6.5 by UPLC analysis; assay type: physicochemical; conditions: bis-tris propane buffer
[3] = Agonist activity at human AMY3R (CT+RAMP3) expressed in Hollex1 cells incubated for 3 hrs by luminescence assay; assay type: cell-based; conditions: Hollex1, 3 h
[4] = Solubility of the compound in lactate at pH 3 by UPLC analysis; assay type: physicochemical; conditions: lactate buffer
[5] = Solubility of the compound in bis-tris propane at pH 6 by UPLC analysis; assay type: physicochemical; conditions: bis-tris propane buffer
Insulin (Homo sapiens) [6] = target: Insulin (Homo sapiens) (UniProt P01308); experiment: Effect on insulin (unknown origin) amyloid fibril formation assessed as lag time in glycyl-glycine buffer at pH 4 measured after 45 hrs by thioflavin-T fluorescence assay
[7] = Solubility of the compound in bis-tris propane at pH 7 by UPLC analysis; assay type: physicochemical; conditions: bis-tris propane buffer
[8] = Agonist activity at human calcitonin receptor expressed in BHK570 cells assessed as increase in intracellular cAMP concentration incubated for 3 hrs in absence of albumin by CRE luciferase reporter gene assay; assay type: cell-based; conditions: BHK570, 3 h
Rattus norvegicus [9] = experiment: Reduction in food intake in Sprague-Dawley rat at 3 nmol/kg, sc administered as single dose measured after 24 to 48 hrs relative to control; assay type: functional; set-up: scale not given: the % may be the effect or the level left; conditions: time 24-48 hrs
[10] = Solubility of the compound in bis-tris propane at pH 8 by UPLC analysis; assay type: physicochemical; conditions: bis-tris propane buffer
[11] = Solubility of the compound in bis-tris propane at pH 7.5 by UPLC analysis; assay type: physicochemical; conditions: bis-tris propane buffer
Rattus norvegicus [12] = experiment: Reduction in food intake in Sprague-Dawley rat at 3 nmol/kg, sc administered as single dose measured upto 24 hrs relative to control; assay type: functional; set-up: scale not given: the % may be the effect or the level left; conditions: time hrs <=24
[13] = Solubility of the compound in lactate at pH 4 by UPLC analysis; assay type: physicochemical; conditions: lactate buffer
Rattus norvegicus [14] = species: Rattus norvegicus; experiment: Ratio of EC50 for rat calcitonin receptor expressed in BHK-13 cells to EC50 for rat AMY3R (CT+RAMP3) expressed in tk-ts13 cells; assay type: cell-based
[15] = Solubility of the compound in lactate at pH 5 by UPLC analysis; assay type: physicochemical; conditions: lactate buffer
[16] = Agonist activity at rat calcitonin receptor expressed in BHK-13 cells assessed as increase in intracellular cAMP concentration incubated for 25 mins by CRE luciferase reporter gene assay; assay type: cell-based; conditions: BHK-13, 25 min
[17] = Agonist activity at rat AMY3R (CT+RAMP3) expressed in tk-ts13 cells assessed as increase in intracellular cAMP level incuabted for 25 mins by CRE luciferase reporter gene assay; assay type: cell-based; conditions: tk-ts13, 25 min

CC[C@H](C)[C@H](NC(=O)[C@@H]1CCCN1C(=O)CNC(=O)[C@H](Cc1ccccc1)NC(=O)[C@H](CC(N)=O)NC(=O)[C@H](CC(N)=O)NC(=O)[C@H](CO)NC(=O)[C@H](CO)NC(=O)[C@H](Cc1cnc[nH]1)NC(=O)[C@H](Cc1cnc[nH]1)NC(=O)[C@H](CC(C)C)NC(=O)[C@H](Cc1ccccc1)NC(=O)[C@H](CCC(=O)O)NC(=O)[C@H](C)NC(=O)[C@H](CC(C)C)NC(=O)[C@H](CCCNC(=N)N)NC(=O)[C@H](CCC(N)=O)NC(=O)[C@@H](NC(=O)[C@H](C)NC(=O)[C@@H]1CSSC[C@H](NC(=O)[C@H](CCC(=O)O)NC(=O)CC[C@H](NC(=O)CCCCCCCCCCCCCCCCCCC(=O)O)C(=O)O)C(=O)N[C@@H](CC(N)=O)C(=O)N[C@@H]([C@@H](C)O)C(=O)N[C@@H](C)C(=O)N[C@@H]([C@@H](C)O)C(=O)N1)[C@@H](C)O)C(=O)N[C@@H](CC(C)C)C(=O)N1CCC[C@H]1C(=O)N1CCC[C@H]1C(=O)N[C@H](C(=O)N[C@@H](CC(N)=O)C(=O)N[C@H](C(=O)NCC(=O)N[C@@H](CO)C(=O)N[C@@H](CC(N)=O)C(=O)N[C@H](C(=O)N[C@@H](Cc1ccc(O)cc1)C(N)=O)[C@@H](C)O)C(C)C)[C@@H](C)O ({C20 diacid-γGlu}-ECNTATCATQRLAEFLHHSSNNFGPILPPTNVGSNTY-NH2; disulfide 2-7)
Activity (Insulin (Homo sapiens) [1]): 0% | Ratio EC50 (Homo sapiens): 2 | solubility [2]: 200 µM (≈ 891 µg/mL) | EC50 [3]: 0.377 nM | solubility [4]: 200 µM (≈ 891 µg/mL) | solubility [5]: 200 µM (≈ 891 µg/mL) | TIME (Insulin (Homo sapiens) [6]): 3 h | solubility [7]: 200 µM (≈ 891 µg/mL) | EC50 [8]: 0.657 nM | Activity (Rattus norvegicus [9]): 5% | solubility [10]: 200 µM (≈ 891 µg/mL) | solubility [11]: 200 µM (≈ 891 µg/mL) | Activity (Rattus norvegicus [12]): 15% | solubility [13]: 200 µM (≈ 891 µg/mL)

CC(C)C[C@H](NC(=O)[C@H](CCCNC(=N)N)NC(=O)[C@H](CCC(N)=O)NC(=O)[C@@H](NC(=O)[C@H](C)NC(=O)[C@@H]1CSSC[C@H](NC(=O)[C@H](Cc2cnc[nH]2)NC(=O)CC[C@H](NC(=O)CCCCCCCCCCCCCCCCCCC(=O)O)C(=O)O)C(=O)N[C@@H](CC(N)=O)C(=O)N[C@@H]([C@@H](C)O)C(=O)N[C@@H](C)C(=O)N[C@@H]([C@@H](C)O)C(=O)N1)[C@@H](C)O)C(=O)N[C@@H](C)C(=O)N[C@@H](CCC(=O)O)C(=O)N[C@@H](Cc1ccccc1)C(=O)N[C@@H](CC(C)C)C(=O)N[C@@H](Cc1cnc[nH]1)C(=O)N[C@@H](CCCNC(=N)N)C(=O)N[C@@H](CO)C(=O)N[C@@H](CO)C(=O)N[C@@H](CC(N)=O)C(=O)N[C@@H](CC(N)=O)C(=O)N[C@@H](Cc1ccccc1)C(=O)NCC(=O)N[C@@H](C)C(=O)N1CCC[C@H]1C(=O)N[C@@H](CC(C)C)C(=O)N[C@@H](CO)C(=O)N[C@@H](CO)C(=O)N[C@H](C(=O)N[C@@H](CC(N)=O)C(=O)N[C@H](C(=O)NCC(=O)N[C@@H](CO)C(=O)N[C@@H](CC(N)=O)C(=O)N[C@H](C(=O)N[C@@H](Cc1ccc(O)cc1)C(N)=O)[C@@H](C)O)C(C)C)[C@@H](C)O ({C20 diacid-γGlu}-HCNTATCATQRLAEFLHRSSNNFGAPLSSTNVGSNTY-NH2; disulfide 2-7)
Activity (Insulin (Homo sapiens) [1]): 0% | Ratio EC50 (Homo sapiens): 2 | solubility [2]: 4 µM (≈ 17.7 µg/mL) | EC50 [3]: 0.107 nM | solubility [4]: 200 µM (≈ 884 µg/mL) | TIME (Insulin (Homo sapiens) [6]): 14 h | solubility [7]: 7 µM (≈ 31 µg/mL) | EC50 [8]: 0.218 nM

CC[C@H](C)[C@H](NC(=O)[C@@H]1CCCN1C(=O)CNC(=O)[C@H](Cc1ccccc1)NC(=O)[C@H](CC(N)=O)NC(=O)[C@H](CC(N)=O)NC(=O)[C@H](CO)NC(=O)[C@H](CO)NC(=O)[C@H](Cc1c[nH]cn1)NC(=O)[C@H](CCCNC(=N)N)NC(=O)[C@H](CC(C)C)NC(=O)[C@H](Cc1ccccc1)NC(=O)[C@H](CCC(=O)O)NC(=O)[C@H](C)NC(=O)[C@H](CC(C)C)NC(=O)[C@H](CCCNC(=N)N)NC(=O)[C@H](CCC(N)=O)NC(=O)[C@@H](NC(=O)[C@H](C)NC(=O)[C@@H]1CSSC[C@H](NC(=O)[C@H](CCCCN)NC(=O)CC[C@H](NC(=O)CCCCCCCCCCCCCCCCCCC(=O)O)C(=O)O)C(=O)N[C@@H](CC(N)=O)C(=O)N[C@@H]([C@@H](C)O)C(=O)N[C@@H](C)C(=O)N[C@@H]([C@@H](C)O)C(=O)N1)[C@@H](C)O)C(=O)N[C@@H](CC(C)C)C(=O)N1CCC[C@H]1C(=O)N1CCC[C@H]1C(=O)N[C@H](C(=O)N[C@@H](CC(N)=O)C(=O)N[C@H](C(=O)NCC(=O)N[C@@H](CO)C(=O)N[C@@H](Cc1cnc[nH]1)C(=O)N[C@H](C(=O)N[C@@H](Cc1ccc(O)cc1)C(N)=O)[C@@H](C)O)C(C)C)[C@@H](C)O ({C20 diacid-γGlu}-KCNTATCATQRLAEFLRHSSNNFGPILPPTNVGSHTY-NH2; disulfide 2-7)
Activity (Insulin (Homo sapiens) [1]): 100% | Ratio EC50 (Homo sapiens): 3 | Ratio EC50 (Rattus norvegicus [14]): 5 | solubility [2]: 200 µM (≈ 900 µg/mL) | EC50 [3]: 0.111 nM | solubility [4]: 200 µM (≈ 900 µg/mL) | solubility [5]: 200 µM (≈ 900 µg/mL) | TIME (Insulin (Homo sapiens) [6]): 45 h | solubility [7]: 200 µM (≈ 900 µg/mL) | EC50 [8]: 0.379 nM | Activity (Rattus norvegicus [9]): 0% | solubility [10]: 80 µM (≈ 360 µg/mL) | solubility [15]: 200 µM (≈ 900 µg/mL) | Activity (Rattus norvegicus [12]): 17% | EC50 [16]: 2.54 nM | EC50 [17]: 0.49 nM | solubility [13]: 200 µM (≈ 900 µg/mL)

— ChEMBL document CHEMBL4842340, “Development of Cagrilintide, a Long-Acting Amylin Analogue” (J Med Chem, 2021)
